Tested on: reconstituted human epidermis with melanocytes of phototype II
Experiment: Tanning properties in reconstituted human epidermis with melanocytes; semiquantification of melanin content by Fontana-Masson staining and image analysis
Type: cell-based
Settings: for Change of melanin content / pigmentation, in words: IBMX 100 μM vs untreated controls
Procedure: The epidermis with melanocytes of phototype II is reconstituted in an air/liquid interface system (directly at the air-liquid interface) in a culture medium from day 0 to day 4 for a complete differentiation. The culture is then continued from day 4 to day 14 in this same medium but without bovine pituitary extract (BPE). The test preparations were administered in the […] from day 4 to day 14. The medium and the test preparations are each added on day 4, day 7 and day 11. DMSO and THF are tested in parallel and IBMX (100 μM) is used as the positive reference.
After embedding in paraffin, a Fontana-Masson staining of the tissue sections is performed. The microscope slides are covered with a special medium and examined using a light microscope of the Leica DM2000 type with a digital camera. After staining, images are recorded and a quantification is performed by image analysis (on the basis of 12 images). For quantification of the melanin content in each image, the Leica QWin3 software is used. Two measurements are carried out. The first measurement gives the total intensity of the coloration, i.e., a lighter or darker melanin is reflected. The second measurement relates to the marked image area, i.e., the area of the epidermis containing the melanin. In these measurements all cell layers except the stratum corneum are included.
The procedure used was the same as that carried out in example 1 and 2. After determining the cytotoxic concentrations, substance (Ia) is tested at 8 μM, substance (Ib) at 40 μM (solvent: 0.1% THF) and substance (IIa) at 20 μM (solvent: 0.1% DMSO).
After determining the cytotoxic concentrations of these substances, substance (Ib) is tested at 40 μM in DMSO (0.1%), substance (IIa) is tested at 20 μM in DMSO (0.1%), the mixture of (Ib)/(IIa) is tested at 40/20 μM in DMSO (0.1% and rhamnose is tested at 40 μM in THF (0.2%).

[1] = second experiment, Ib 40 μM and IIa 20 μM vs DMSO, mixture 40/20 μM, rhamnose 40 μM
[2] = first experiment, Ia 8 μM, Ib 40 μM vs THF, IIa 20 μM vs DMSO

| Compound | Change of melanin content / pigmentation, in words [1] | Change of melanin content / pigmentation, in words [2] | other results |
| --- | --- | --- | --- |
| C[C@H](O)[C@H](O)[C@@H](O)[C@@H](O)C=O [Rhamnose, rhamnose, reference compound] | tendency to increase melanin synthesis is only faintly pronounced |  | Quantification after Fontana-Masson staining, relative to the untreated controls (second experiment, 40 μM in THF (0.2%)): 109% |
| CC(C)Cn1c(=O)n(C)c(=O)c2[nH]cnc21 [IBMX, reference compound] | significant increase | significant increase | Quantification after Fontana-Masson staining, relative to the untreated controls (first experiment, IBMX 100 μM, positive reference, day 4 to day 14): 152% (p < 0.05); Quantification after Fontana-Masson staining, relative to the untreated controls (second experiment, IBMX 100 μM, positive reference): 150% (p < 0.01) |
| Cc1cc(=O)c2c(O[C@@H]3O[C@@H](C)[C@H](O)[C@@H](O)[C@H]3O)cc(O)cc2o1 [Substance (IIa), 5-[(6-deoxy-α-L-mannopyranosyl)oxy]-7-hydroxy-2-methyl-4H-1-benzopyran-4-one] | significant increase | significant increase | Quantification after Fontana-Masson staining, relative to the untreated controls (first experiment, 20 μM, solvent 0.1% DMSO, day 4 to day 14): 143% (p < 0.05); Quantification after Fontana-Masson staining, relative to the untreated controls (second experiment, 20 μM in DMSO (0.1%)): 147% (p < 0.05) |
| Cc1cc(=O)c2c(O)cc(O[C@@H]3O[C@H](CO)[C@@H](O)[C@H](O)[C@H]3O)cc2o1 [Substance (Ia), 7-(β-D-glucopyranosyloxy)-5-hydroxy-2-methyl-4H-1-benzopyran-4-one] |  | unambiguous tendency to increase pigmentation | Quantification after Fontana-Masson staining, relative to the untreated controls (first experiment, 8 μM, day 4 to day 14): 125% |
| Cc1cc(=O)c2c(O)cc(O[C@@H]3O[C@@H](C)[C@H](O)[C@@H](O)[C@H]3O)cc2o1 [Substance (Ib), 7-[(6-deoxy-α-L-mannopyranosyl)oxy]-5-hydroxy-2-methyl-4H-1-benzopyran-4-one] | significant increase | significant increase | Quantification after Fontana-Masson staining, relative to the untreated controls (first experiment, 40 μM, solvent 0.1% THF, day 4 to day 14): 174% (p < 0.05); Quantification after Fontana-Masson staining, relative to the untreated controls (second experiment, 40 μM in DMSO (0.1%)): 167% (p < 0.01) |

From US10722441B2, “Noreugenin glycoside derivatives” (Universitaet Hamburg, priority 2016, dated 2020)
